Residues, ends and D or L forms follow the SMILES beside them. *: point of attachment. Cbz = O=C(OCc1ccccc1)*

The subject of data set [1] is T1, menin protein levels in VCaP cells.
T1 construct: endogenous in cells; host or cells: VCaP
Description: Western blot of menin protein level. The format is cell-based, human. For orientation: A western blot detects proteins with antibodies after separation by electrophoresis.

Data set [2] has as its target CYP 3A4 (Homo sapiens, UniProt P08684). The data set is described as follows: CYP inhibition 3A4. The format is in vitro ADME.
Data set [3] has as its target CYP 1A2 (Homo sapiens, UniProt P05177). Description: CYP inhibition 1A2. The class given is in vitro ADME.
Data set [4] concerns the target T2, menin-MLL interaction (Homo sapiens, UniProt O00255).
T2 construct: recombinant full length, His-tagged menin
T2 sequence (O00255 1-610): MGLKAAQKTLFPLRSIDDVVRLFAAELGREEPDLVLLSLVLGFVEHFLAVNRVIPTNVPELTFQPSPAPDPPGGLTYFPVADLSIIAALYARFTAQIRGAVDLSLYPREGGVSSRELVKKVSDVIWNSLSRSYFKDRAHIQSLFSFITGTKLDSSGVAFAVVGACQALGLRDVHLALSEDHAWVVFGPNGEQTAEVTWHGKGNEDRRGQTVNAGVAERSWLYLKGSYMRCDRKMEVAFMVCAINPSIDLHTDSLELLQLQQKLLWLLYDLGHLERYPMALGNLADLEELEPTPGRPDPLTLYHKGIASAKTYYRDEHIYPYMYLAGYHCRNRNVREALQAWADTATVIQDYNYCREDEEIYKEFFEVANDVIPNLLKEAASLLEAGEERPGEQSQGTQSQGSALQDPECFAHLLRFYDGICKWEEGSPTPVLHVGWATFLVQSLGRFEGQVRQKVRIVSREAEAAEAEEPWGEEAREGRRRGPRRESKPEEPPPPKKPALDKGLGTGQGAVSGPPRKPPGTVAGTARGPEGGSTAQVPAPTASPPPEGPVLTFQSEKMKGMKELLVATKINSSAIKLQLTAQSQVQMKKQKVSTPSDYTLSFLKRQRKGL
The data set is described as follows: TR-FRET menin-MLL binding assay. Conditions: read-out: Potency IC50 Menin-MLL binding. On the technique in general: TR-FRET usually uses a lanthanide donor and a delayed reading to cut background.

Data set [5] concerns MV4;11 cells. Description: Proliferation inhibition, MV4;11. The format is cell-based, human. To be noted: Homo sapiens, MV4-11; proliferation; read-out: Potency IC50 MV4;11.
The nature of data set [6]: In vivo DMPK in rat.
Data set [7] has as its target CYP 2C9 (Homo sapiens, UniProt P11712). The data set is described as follows: CYP inhibition 2C9. The class given is in vitro ADME.
Data set [8] concerns MOLM-13 cells. The data set is described as follows: Proliferation inhibition, MOLM-13. The format is cell-based, human. To be noted: Homo sapiens, proliferation, read-out: Potency IC50 MOLM-13.
For data set [9], the target named is T3, menin (Homo sapiens, UniProt O00255).
T3 construct: purified menin (1–615 with GST-tag cleaved as described above); GST (TEV cleavable) (N, cleaved yes); made in house; host or cells: E. coli BL21 (DE3)
T3 sequence (O00255 1-615 isoform O00255-1): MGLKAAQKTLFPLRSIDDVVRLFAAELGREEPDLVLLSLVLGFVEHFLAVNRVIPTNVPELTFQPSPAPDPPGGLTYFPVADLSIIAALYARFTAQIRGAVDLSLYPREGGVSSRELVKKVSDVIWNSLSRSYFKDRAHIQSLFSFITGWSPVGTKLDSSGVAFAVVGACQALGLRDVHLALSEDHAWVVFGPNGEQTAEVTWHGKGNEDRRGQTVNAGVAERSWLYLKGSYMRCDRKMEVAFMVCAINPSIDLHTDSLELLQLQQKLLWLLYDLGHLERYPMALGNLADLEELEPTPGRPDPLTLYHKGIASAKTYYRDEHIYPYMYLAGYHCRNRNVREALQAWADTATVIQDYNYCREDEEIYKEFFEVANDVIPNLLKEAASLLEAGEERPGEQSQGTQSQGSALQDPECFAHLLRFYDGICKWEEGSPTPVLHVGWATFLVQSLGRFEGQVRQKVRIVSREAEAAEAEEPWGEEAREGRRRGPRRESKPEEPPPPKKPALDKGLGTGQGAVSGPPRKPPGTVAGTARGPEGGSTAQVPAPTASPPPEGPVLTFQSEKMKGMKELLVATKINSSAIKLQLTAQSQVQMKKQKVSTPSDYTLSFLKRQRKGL
Description: Isothermal Titration Calorimetry (ITC) on purified menin. The class given is binding. Conditions: ITC, 25 °C, menin 1-615; read-out: KD. How it is done: Cloning of expression vectors for recombinant menin was performed as follows. […] Proteins were expressed in E. coli BL21 (DE3) following 0.1 mM IPTG induction at 17 °C overnight. For purification, cell pellets were resuspended in buffer A (50 mM Tris pH 7.5, 300 mM NaCl, 2 mM DTT). Cells were lysed using a high pressure Microfluidics apparatus and the cell debris pelleted by centrifugation. The supernatant was applied to a GST column (GE Healthcare, Chicago, IL, USA), washed with two column volumes of washing buffer A and eluted with Buffer B (Buffer A plus 15 mM reduced glutathione). If necessary, the purification tag was cleaved off with the addition of His-TEV protease (1:20 mass ratio) during overnight incubation in buffer A. His-TEV was removed by IMAC column rebinding and final protein purification of either GST-cleaved or uncleaved menin-1 was performed by size exclusion chromatography using a HiLoad 16/60 Superdex 200 (GE Healthcare) column in buffer C (Buffer A but 50 mM NACl).
The compound was dissolved in 100% DMSO to a concentration of 10 mM and subsequently diluted to a final concentration of 5 µM in ITC Buffer. Isothermal Titration Calorimetry (ITC) was performed at 25 °C in a Microcal PEAQ-ITC (Malvern Panalytical). […] Reference Power was set to 6 μcal/s. Data were collected on high feedback mode. Analysis was performed with a single binding site model in the Microcal PEAQ-ITC Analysis Software (Malvern Panalytical).
(In general: In ITC the heat of successive injections is recorded.)

Data set [10] concerns Jurkat cells. The data set is described as follows: Proliferation inhibition, Jurkat. To be noted: Homo sapiens, read-out: Potency IC50 Jurkat. The format is cell-based.
In data set [11] the target is CYP 2D6 (Homo sapiens, UniProt P10635). The data set is described as follows: CYP inhibition 2D6. The class given is in vitro ADME.
Sequence of CYP 2D6 (P10635 whole entry): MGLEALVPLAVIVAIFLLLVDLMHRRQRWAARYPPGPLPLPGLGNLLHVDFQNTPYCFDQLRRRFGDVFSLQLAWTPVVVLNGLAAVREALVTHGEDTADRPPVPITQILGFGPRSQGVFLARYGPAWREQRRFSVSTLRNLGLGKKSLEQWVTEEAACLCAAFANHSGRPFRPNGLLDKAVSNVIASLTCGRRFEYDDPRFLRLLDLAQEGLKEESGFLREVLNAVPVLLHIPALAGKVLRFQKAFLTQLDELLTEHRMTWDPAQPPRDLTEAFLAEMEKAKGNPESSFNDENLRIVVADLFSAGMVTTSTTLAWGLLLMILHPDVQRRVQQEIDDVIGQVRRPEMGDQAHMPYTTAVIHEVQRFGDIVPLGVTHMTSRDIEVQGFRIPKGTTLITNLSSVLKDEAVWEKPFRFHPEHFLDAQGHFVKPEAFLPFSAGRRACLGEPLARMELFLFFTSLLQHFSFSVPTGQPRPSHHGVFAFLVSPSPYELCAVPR
Data set [12] has as its system safety pharmacology relevant proteins (GPCRs, ion channels and transporters). Description: Selectivity panel of safety pharmacology assays. To be noted: 10 µM.
The test system of data set [13] is HL-60 cells. Description: Proliferation inhibition, HL-60. The class given is cell-based. Conditions: Homo sapiens, read-out: Potency IC50 HL-60.
Data set [14] addresses CYP 2C8 (Homo sapiens, UniProt P10632). The data set is described as follows: CYP inhibition 2C8. The class given is in vitro ADME.
The nature of data set [15]: Metabolic stability in rat hepatocytes. Conditions: in vitro maximal bioavailability. The class given is in vitro ADME. How it is done:
Liver cells were distributed at a density of 1.0 × 10^6 cells/mL and treated with 1 µM BAY-155 or MI-503. During incubation, the hepatocyte suspensions were continuously shaken, and aliquots were taken at 2, 8, 16, 30, 45, and 90 min, fixed with cold methanol and stored at −20 °C. Next, samples were centrifuged and the supernatant was analyzed with an LC-MS/MS. The compound half-life was determined from the concentration–time plot. The intrinsic clearances were calculated from the half-life, together with additional parameters (liver blood flow, quantity of liver cells in vivo and in vitro).

The test system of data set [16] is AR signaling pathway genes in VCaP tumor samples. The data set is described as follows: Ex vivo gene expression in VCaP xenografts. Also on record: species or system mice. Conditions: 52 days of treatment. How it is done:
(§1) Total RNA was isolated using RNeasy-Plus Mini kit (Qiagen, Hilden, Germany). RNA (1 μg) was reverse transcribed using SuperScript III First-Strand Synthesis SuperMix (Life Technologies) and the generated cDNA was analyzed with commercial primers (Supplementary Materials Table S1) by qRT-PCR using TaqMan Fast Advanced Master Mix (Life Technologies). For the RNA-seq study, ZR-75-1, BT474, PANC-1, MiaPaCa-2, 22RV1, JMSU-1, DLD-1, SW1463, LoVo and G401 cells were treated with 5 µM BAY-155 or DMSO for 48 h prior to RNA extraction. After 48 h of 5 µM BAY-155 or DMSO treatment, MCF7, VCaP and LNCaP cells were stimulated for further 12 h with 0.1 nM of E2 (ß-Estradiol) or 1 nM R1881, respectively. MCF7, VCaP and LNCaP cells were cultured in starvation medium (containing 5 µM BAY-155 or DMSO) 6 h before stimulation. RNA was isolated using RNeasy-Plus Mini kit (Qiagen). The purified RNA was used for library preparation (Illumina, San Diego, CA, USA. TruSeq Stranded mRNA Kit) and the generated libraries were sequenced (Illumina, HiSeq2500 HTv4, SR, dual-indexing, 50 cycles).
(§2) Tumors were harvested, dissociated and total RNA was extracted using the TissueLyser (Qiagen, Hilden, Germany) together with RNeasy-Plus Mini kit according to the manufacturer protocol.

Data set [17] has as its system VCaP xenograft. The data set is described as follows: VCaP xenograft efficacy. The format is in vivo, mice. As for the experimental part:
(§3) Tumor cells were injected subcutaneously into the flanks of 6- to 9-week old animals. Efficacy studies in xenograft models were performed at Bayer or EPO GmbH (Berlin-Buch, Germany) using NMRI nu/nu, SCID, BALB/c Nude female mice or SCID male mice (VCaP tumors). All animal studies were conducted in accordance with the animal welfare laws and were approved by the State Office for Health and Social Affairs Berlin (LAGeSo). Experiments were run under the animal license B3600a0007. Compound treatment started at a predefined tumor size or burden or at a predefined day after cell inoculation. BAY-155 was administered orally (p.o.) at various doses and regorafenib, tamoxifen and enzalutamide (resuspended in PEG400/H2O 6/4 or PEG400/EtOH 9/1) were used as control treatment for RKO, MCF7 and VCaP xenografts, respectively. Subcutaneous tumor volumes were determined by caliper measurement.

Data set [18] relates to RKO xenograft. Description: RKO xenograft efficacy. The class given is in vivo, mice. How it is done: as §3
For data set [19], the system named is MCF7 xenograft. Description: MCF7 xenograft efficacy. The format is in vivo, mice. How it is done: as §3
Data set [20] has as its system ER signaling pathway genes in MCF7 tumor samples. Description: Ex vivo gene expression in MCF7 xenografts. Also noted: species or system mice. Conditions: 27 days of treatment. How it is done: as §1, §2

Sequence of CYP 2C9 (P11712 whole entry): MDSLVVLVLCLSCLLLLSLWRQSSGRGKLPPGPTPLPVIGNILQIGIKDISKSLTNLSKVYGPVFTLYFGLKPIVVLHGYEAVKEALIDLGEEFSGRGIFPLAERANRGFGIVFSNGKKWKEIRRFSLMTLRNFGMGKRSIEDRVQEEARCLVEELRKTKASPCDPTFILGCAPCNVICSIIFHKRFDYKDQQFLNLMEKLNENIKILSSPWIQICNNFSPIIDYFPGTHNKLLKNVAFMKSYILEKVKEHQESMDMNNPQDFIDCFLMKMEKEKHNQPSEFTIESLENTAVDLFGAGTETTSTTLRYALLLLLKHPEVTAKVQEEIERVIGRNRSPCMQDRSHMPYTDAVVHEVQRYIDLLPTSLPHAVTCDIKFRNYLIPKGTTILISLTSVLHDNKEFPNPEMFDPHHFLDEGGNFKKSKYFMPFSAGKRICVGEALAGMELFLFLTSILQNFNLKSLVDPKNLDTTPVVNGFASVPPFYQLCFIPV
Sequence of CYP 1A2 (P05177 whole entry): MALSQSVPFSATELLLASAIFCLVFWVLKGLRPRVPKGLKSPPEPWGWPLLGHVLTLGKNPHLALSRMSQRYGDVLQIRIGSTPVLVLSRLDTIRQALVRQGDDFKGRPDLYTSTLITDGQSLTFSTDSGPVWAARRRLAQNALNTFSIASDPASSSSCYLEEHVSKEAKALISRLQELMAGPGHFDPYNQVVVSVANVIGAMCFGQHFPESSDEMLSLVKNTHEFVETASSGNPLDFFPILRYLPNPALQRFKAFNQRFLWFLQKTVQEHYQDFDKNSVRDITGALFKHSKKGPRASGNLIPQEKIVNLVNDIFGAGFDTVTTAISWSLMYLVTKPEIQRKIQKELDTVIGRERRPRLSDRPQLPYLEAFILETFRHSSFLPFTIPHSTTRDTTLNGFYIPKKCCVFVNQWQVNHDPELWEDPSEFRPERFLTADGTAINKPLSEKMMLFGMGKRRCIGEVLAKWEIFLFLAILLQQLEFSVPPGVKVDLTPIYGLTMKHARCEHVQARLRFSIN
Sequence of CYP 2C8 (P10632 whole entry): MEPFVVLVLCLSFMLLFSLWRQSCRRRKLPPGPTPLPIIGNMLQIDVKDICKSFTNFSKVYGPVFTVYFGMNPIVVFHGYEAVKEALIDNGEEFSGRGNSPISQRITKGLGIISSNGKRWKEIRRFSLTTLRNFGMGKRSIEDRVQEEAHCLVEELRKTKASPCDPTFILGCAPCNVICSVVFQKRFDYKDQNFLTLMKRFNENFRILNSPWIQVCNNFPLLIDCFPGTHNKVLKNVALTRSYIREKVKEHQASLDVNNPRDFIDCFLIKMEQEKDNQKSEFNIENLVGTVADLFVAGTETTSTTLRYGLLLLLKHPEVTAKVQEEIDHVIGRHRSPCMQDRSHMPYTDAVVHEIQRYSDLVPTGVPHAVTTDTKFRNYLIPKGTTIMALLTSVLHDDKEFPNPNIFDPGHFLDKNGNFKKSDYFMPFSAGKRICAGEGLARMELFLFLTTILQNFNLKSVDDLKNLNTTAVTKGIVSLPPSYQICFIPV
Sequence of CYP 3A4 (P08684 whole entry): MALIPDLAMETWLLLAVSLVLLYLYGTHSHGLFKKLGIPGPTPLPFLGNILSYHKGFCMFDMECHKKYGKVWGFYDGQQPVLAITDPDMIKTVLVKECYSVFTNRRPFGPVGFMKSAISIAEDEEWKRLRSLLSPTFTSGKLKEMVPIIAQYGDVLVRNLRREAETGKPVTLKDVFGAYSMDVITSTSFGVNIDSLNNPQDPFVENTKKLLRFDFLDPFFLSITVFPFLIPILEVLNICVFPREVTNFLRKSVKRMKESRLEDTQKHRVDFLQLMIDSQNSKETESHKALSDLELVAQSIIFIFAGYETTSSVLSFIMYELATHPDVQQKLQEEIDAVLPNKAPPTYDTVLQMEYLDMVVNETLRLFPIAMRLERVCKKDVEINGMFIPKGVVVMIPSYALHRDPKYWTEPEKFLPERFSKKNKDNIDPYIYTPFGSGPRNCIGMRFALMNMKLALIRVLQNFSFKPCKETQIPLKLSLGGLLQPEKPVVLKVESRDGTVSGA

Consider `CC(C)C[C@@H](C=O)NC(=O)[C@H](CC(C)C)NC(=O)[C@H](CC(C)C)NC(=O)OCc1ccccc1` [MG-132] (Cbz-Leu-Leu-Leu-aldehyde), for which the “rescue of menin protein level under BAY-155 treatment” value in data set [1] (MG-132 10 µM with BAY-155 10 µM, 16 h) is reported as “fully rescued the menin protein level”.

In general, IC50 refers to the concentration at which inhibition is half-maximal. As usually defined, the Kd is the concentration at which binding is half-saturated. `Cc1c(CN2CCC(Nc3ncnc4sc(CC(F)(F)F)cc34)CC2)ccc2c1cc(C#N)n2Cc1cn[nH]c1` [MI-503]: the half-inhibitory concentration (IC50) was 1000 nM in [2]; more than 10000 nM in data set [3]; 80 nM in data set [4]; 251 nM in data set [5]; 800 nM in [7]; 893 nM in [8]. Moreover, the IC50 in [10] is 568 nM; in data set [11], 2400 nM; in data set [13], 672 nM; in data set [14] it was 4000 nM. The “in vivo F Rat” value in data set [6] (rat in vivo bioavailability) amounted to 2.7%. Also, in data set [6] (whole blood, rat in vivo, read-out: in vivo CL blood Rat (converted)), the clearance was 25 mL/min/kg. Also, the menin protein levels entry in data set [1] (Western blot) was “reduce menin protein levels in a time- and concentration-dependent manner”. Further, the Kd in [9] stood at 94 nM. For the same molecule, the “number of tested proteins inhibited by ≥ 50%” value in data set [12] was 28. In data set [15], the “hepatocytes Fmax Rat” value is reported as 48%.

For `CNC(=O)c1ccc(N2C(=S)N(c3ccc(C#N)c(C(F)(F)F)c3)C(=O)C2(C)C)cc1F` [enzalutamide, reference compound], the “FKBP5 and TMPRSS2 expression ex vivo” value in data set [16] was “significant reduction”. For the same molecule, the “tumor volume and tumor weight” value in data set [17] was “reduced tumor volume and tumor weight”.

For `CNC(=O)c1cc(Oc2ccc(NC(=O)Nc3ccc(Cl)c(C(F)(F)F)c3)c(F)c2)ccn1` [regorafenib, reference compound], in data set [18], the “tumor volume and weight (anti-growth effects)” value was “pronounced reduction of tumor volume and weight”.

With `CC/C(=C(\c1ccccc1)c1ccc(OCCN(C)C)cc1)c1ccccc1` [tamoxifen, reference compound], in [19], the “tumor volume and tumor weight” value is “reduced tumor volume and tumor weight”. Further, the “EGR3, GREB1 and PGR1 expression ex vivo” value in data set [20] was “significant reduction”.

For the origin of these results see publication PMC7016952, “Characterization of the Menin-MLL Interaction as Therapeutic Cancer Target” (Cancers, 2020).
